Laboratory results as given in ChEMBL document CHEMBL5356934, “Antibacterial activities of anthraquinones: structure-activity relationships and action mechanisms” (RSC Med Chem, 2023).
In brackets after ≈: the same amount, converted by molar mass.

Tested on: Mycobacterium tuberculosis variant bovis
Experiment: Antimycobacterial activity against Mycobacterium bovis assessed as reduction in bacterial growth
Format: functional

Cc1cc(O)c2c(c1)C(=O)c1cccc(O)c1C2=O [CHRYSOPHANOL]
MIC: 64 µg/mL (≈ 252 µM)
